Values joined by “and” are separate entries in the source; they are usually repeats but may differ in a detail not shown here. Equal values may be shown once. Read-outs that look alike come from different tables or passages of the source.
How the values were obtained:
[1] = cited from earlier work
[2] = tested on: Xenotropic Murine Leukemia Virus (XMuLV); assay type: cell-based
XMuLV = test: Viral inactivation study with TRITON X-100 using 3 different antibodies
Protocol: Viral inactivation studies were performed with TRITON X-100® at 1-2× CMC (0.02% w/w) at ambient temperature using 3 different antibodies. TRITON X-100® is a mixture with a range of molecular lengths, so the CMC has a range between 0.01-0.02% w/w at 25° C. in water.

| Molecule | CMC ([1]; […]) | Log Reduction Factor (120 min) [2] | further results |
| --- | --- | --- | --- |
| C[C@H](CCC(=O)NCCC[N+](C)(C)CCCS(=O)(=O)[O-])[C@H]1CC[C@H]2[C@@H]3[C@H](O)C[C@@H]4C[C@H](O)CC[C@]4(C)[C@H]3C[C@H](O)[C@]12C [CHAPS, 3-[(3-cholamidopropyl)dimethylammonio]-1-propanesulfonate] | 6 to 10 mM |  |  |
| C[C@H](CCC(=O)NCCC[N+](C)(C)CC(O)CS(=O)(=O)[O-])[C@H]1CC[C@H]2[C@@H]3[C@H](O)C[C@@H]4C[C@H](O)CC[C@]4(C)[C@H]3C[C@H](O)[C@]12C (stereo partly shown) [CHAPSO, 3-([3-Cholamidopropyl]dimethylammonio)-2-hydroxy-1-propanesulfonate] | 8 mM |  |  |
| CCCCCCCCCCCC[N+](C)(C)CCCCCCCCCCC(=O)[O-] [DDMAU, N-Dodecyl-N,N-(dimethylammonio)undecanoate] | 0.13 mM |  |  |
| CCCCCCCCCCCC[N+](C)(C)CC(=O)[O-] [EMPIGEN BB, N,N-Dimethyl-N-dodecylglycine betaine] | 1.6 to 2.1 mM |  |  |
| CCCCCCCCCCCC[N+](C)(C)[O-] [LDAO, N,N-dimethyldodecylamine N-oxide] | 1 to 2 mM | 4 | Log Reduction Factor (LRF) [2]: 3.14 and 3.07 and 3.08 |
| CCCCCCCCCCCC[N+](C)(C)CCCS(=O)(=O)[O-] [Sulfobetaine-12, N-dodecyl-N,N-dimethyl-3-ammonio-1-propanesulfonate] |  | 4.2 |  |
| CCCCCCCCCCCCCC[N+](C)(C)CCCS(=O)(=O)[O-] [Sulfobetaine-14, N-tetradecyl-N,N-dimethyl-3-ammonio-1-propanesulfonate] |  | 4.7 |  |
| CCCCCCCCCCCCCCCC[N+](C)(C)CCCS(=O)(=O)[O-] [Sulfobetaine-16, N-hexadecyl-N,N-dimethyl-3-ammonio-1-propanesulfonate] |  | 4.2 | Log Reduction Factor (LRF) [2]: 3.16 and 3.15 and 3.14 |
| CCCCCCCC[N+](C)(C)CCCS(=O)(=O)[O-] [ZWITTERGENT 3-08, n-Octyl-N,N-dimethyl-3-ammonio-1-propanesulfonate] | 330 mM |  |  |
| CCCCCCCCCC[N+](C)(C)CCCS(=O)(=O)[O-] [ZWITTERGENT 3-10, n-Decyl-N,N-dimethyl-3-ammonio-1-propanesulfonate] | 25 to 40 mM |  |  |
| TRITON X-100 |  |  | CMC ([1]; at 25° C. in water): 0.01-0.02 % w/w; viral inactivation (XMuLV; 0.25-0.5× CMC (0.006% w/w), below the CMC): No viral inactivation; XMuLV inactivation (XMuLV; 1-2× CMC (0.02% w/w), ambient temperature, within 45 min): > 4 log |

Source: patent US10702603B2 (priority 2012, dated 2020)
